Measurements from patent publication US20110045101A1, “FUNGICIDAL SUBSTITUTED AZOLES” (E.I. Du Pont De Nemours and Company, priority 2009, published 2011).
Marks after values point to notes of the source that are not given here.

Tests used:
Format in all cases: in vivo
Settings in all cases: 100 = 100% disease control
[1] = tested on: Erysiphe graminis f. sp. tritici; assay: Test J: wheat powdery mildew on wheat seedlings, sprayed the day before inoculation, visual disease rating
Outline: (§1)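 Ratings reflect a 200 ppm spray (≈500 g/ha) unless marked as 40 ppm. Plants were sprayed to run-off. The spray suspension was acetone/purified water 50/50 containing 250 ppm Trem 014, after first dissolving compound in acetone at 3% of final volume.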

Septoria nodorum = assay: Test F: wheat glume blotch on wheat seedlings, sprayed the day before inoculation, visual disease rating
Outline: as §1

Alternaria solani = assay: Test D: tomato early blight, sprayed the day before inoculation, visual disease rating
Outline: as §1

Septoria tritici = assay: Test G: wheat leaf blotch on wheat seedlings, sprayed the day before inoculation, visual disease rating
Outline: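 Compounds dissolved in acetone (3% of final volume), then suspended in 50/50 acetone/water with 250 ppm Trem® 014 and sprayed to run-off on seedlings at 200 ppm (≈500 g/ha) or 40 ppm where marked. Inoculation with spores followed next day; visual rating after 48 h saturated at 24° C plus 19 days at 20° C.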

Botrytis cinerea = assay: Test C: tomato Botrytis on tomato seedlings, sprayed the day before inoculation, visual disease rating
Outline: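 Disease scored by eye on tomato seedlings inoculated with Botrytis cinerea a day after treatment. Treatment was a run-off spray at 200 ppm (equivalent to 500 g/ha), or 40 ppm where marked, in acetone/water carrying 250 ppm Trem 014.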

[2] = tested on: Puccinia recondita f. sp. tritici; assay: Test I: wheat leaf rust on wheat seedlings, sprayed the day before inoculation, visual disease rating
Outline: as §1

[3] = 200 ppm, 0 = no control relative to controls

Row | SMILES | Test J disease control rating [1, 3] [%] | Test F disease control rating (Septoria nodorum; [3]) [%] | Test D disease control rating (Alternaria solani; [3]) [%] | Test G disease control rating (Septoria tritici; [3]) [%] | Test C disease control rating (Botrytis cinerea; [3]) [%] | Test I disease control rating [2, 3] [%] | other results
1 | COc1cc(F)c(-c2c(Cl)nc(C)n2-c2ccccc2)c(F)c1C [compound 439] | 100 | 95 | 100 | 94 | 97 | 100 | 
2 | COc1cc(F)c(-c2c(Cl)nc(Br)n2-c2ccc(Cl)cc2)c(Cl)c1 [compound 171] |  |  |  |  |  |  | Test J disease control rating ([1]; 200 ppm, 0 = no control): 99%; Test F disease control rating (Septoria nodorum; 200 ppm, 0 = no control): 100%; Test D disease control rating (Alternaria solani; 200 ppm, 0 = no control): 100%; Test G disease control rating (Septoria tritici; 200 ppm, 0 = no control): 98%; Test C disease control rating (Botrytis cinerea; 200 ppm, 0 = no control): 99%; Test I disease control rating ([2]; 200 ppm, 0 = no control): 98%
3 | Cc1nn(C)c(-c2c(Cl)cccc2Cl)c1-c1ccc(Cl)c(F)c1 [compound 89] | 98 | 0 | 0 | 3 | 0 | 85 | 
4 | COc1cc(F)c(-c2c(Br)nc(C)n2-c2ccc(Cl)cc2)c(F)c1C [compound 59] |  |  |  |  |  |  | Test J disease control rating ([1]; 40 ppm (marked *)): 97* %; Test F disease control rating (Septoria nodorum; 40 ppm (marked *)): 82* %; Test D disease control rating (Alternaria solani; 40 ppm (marked *)): 100* %; Test G disease control rating (Septoria tritici; 40 ppm (marked *)): 97* %; Test C disease control rating (Botrytis cinerea; 40 ppm (marked *)): 93* %; Test I disease control rating ([2]; 40 ppm (marked *)): 86* %
5 | Cc1nn(C)c(-c2c(Cl)cccc2Cl)c1-c1ccc(Cl)cc1 [compound 87] | 99 | 0 | 0 | 84 | 0 | 27 | 
6 | Cc1nc(Cl)c(-c2ccc(F)cc2Cl)n1-c1ccc(Cl)c(F)c1 [compound 243] |  |  |  |  |  |  | Test J disease control rating ([1]; 200 ppm, 0 = no control): 98%; Test F disease control rating (Septoria nodorum; 200 ppm, 0 = no control): 98%; Test D disease control rating (Alternaria solani; 200 ppm, 0 = no control): 100%; Test G disease control rating (Septoria tritici; 200 ppm, 0 = no control): 99%; Test C disease control rating (Botrytis cinerea; 200 ppm, 0 = no control): 99%; Test I disease control rating ([2]; 200 ppm, 0 = no control): 100%
7 | COc1cc(Cl)cc(F)c1-c1c(Cl)nc(Br)n1-c1ccc(Cl)cc1 [compound 140] | 39 | 0 | 0 | 93 | 0 | 55 | 
8 | Cc1ncn(-c2c(F)cc(F)cc2F)c1-c1ccc(Cl)cc1 [compound 447] | 81 | 0 | 80 | 30 | 94 | 0 | 
9 | Fc1ccc(-n2cnc(Cl)c2-c2c(F)cc(F)cc2F)cc1 [compound 137] | 97 | 0 | 100 | 98 | 94 | 55 | 
10 | CN(C)c1ncn(Cc2ccc(Cl)cc2)c1-c1c(F)cccc1F [compound 99] | 0 | 0 | 0 | 25 | 0 | 91 | 
